According to ChEMBL document CHEMBL3525998, “Metabolism of saikosaponin a in rats: diverse oxidations on the aglycone moiety in liver and intestine in addition to hydrolysis of glycosidic bonds” (Drug Metab Dispos, 2013):

How the values were obtained:
Assay type in all cases: ADME, organism-based
[1] = Drug excretion in Sprague-Dawley rat urine assessed as metabolite 3-keto-saikogenin f level at 15 mg/kg, iv by LC-DAD-IT-TOF-MS analysis; design: dose 15 mg/kg, route intravenous; conditions: in vivo
[2] = tested on: Plasma; assay: Drug metabolism in Sprague-Dawley rat plasma assessed as metabolite delta1-saikogenin f formation at 15 mg/kg, iv by LC-DAD-IT-TOF-MS analysis; design: dose 15 mg/kg, route intravenous; conditions: in vivo
[3] = Drug excretion in Sprague-Dawley rat bile assessed as metabolite hydroxysaikosaponin a level at 50 mg/kg, po administered through gavage by LC-DAD-IT-TOF-MS analysis; design: dose 50 mg/kg, route oral; conditions: in vivo
[4] = Drug excretion in Sprague-Dawley rat feces at 50 mg/kg, po administered through gavage by LC-DAD-IT-TOF-MS analysis; design: dose 50 mg/kg, route oral; conditions: in vivo
[5] = Drug excretion in Sprague-Dawley rat feces assessed as metabolite hydroxysaikosaponin a level at 50 mg/kg, po administered through gavage by LC-DAD-IT-TOF-MS analysis; design: dose 50 mg/kg, route oral; conditions: in vivo
[6] = tested on: Plasma; assay: Drug metabolism in Sprague-Dawley rat plasma assessed as metabolite prosaikogenin f formation at 50 mg/kg, po administered through gavage by LC-DAD-IT-TOF-MS analysis; design: dose 50 mg/kg, route oral; conditions: in vivo
[7] = Drug excretion in Sprague-Dawley rat feces at 15 mg/kg, iv by LC-DAD-IT-TOF-MS analysis; design: dose 15 mg/kg, route intravenous; conditions: in vivo
[8] = Drug excretion in Sprague-Dawley rat feces assessed as metabolite prosaikogenin f level at 15 mg/kg, iv by LC-DAD-IT-TOF-MS analysis; design: dose 15 mg/kg, route intravenous; conditions: in vivo
[9] = tested on: Plasma; assay: Drug metabolism in Sprague-Dawley rat plasma assessed as metabolite hydroxysaikosaponin a formation at 15 mg/kg, iv by LC-DAD-IT-TOF-MS analysis; design: dose 15 mg/kg, route intravenous; conditions: in vivo
[10] = tested on: Plasma; assay: Drug metabolism in Sprague-Dawley rat plasma assessed as metabolite hydroxysaikosaponin a formation at 50 mg/kg, po administered through gavage by LC-DAD-IT-TOF-MS analysis; design: dose 50 mg/kg, route oral; conditions: in vivo
[11] = tested on: Plasma; assay: Drug metabolism in Sprague-Dawley rat plasma assessed as metabolite 3-keto-saikogenin f formation at 15 mg/kg, iv by LC-DAD-IT-TOF-MS analysis; design: dose 15 mg/kg, route intravenous; conditions: in vivo
[12] = Drug excretion in Sprague-Dawley rat urine assessed as metabolite hydroxysaikosaponin a level at 15 mg/kg, iv by LC-DAD-IT-TOF-MS analysis; design: dose 15 mg/kg, route intravenous; conditions: in vivo
[13] = Drug excretion in Sprague-Dawley rat bile assessed as metabolite 3-keto-saikogenin f level at 15 mg/kg, iv by LC-DAD-IT-TOF-MS analysis; design: dose 15 mg/kg, route intravenous; conditions: in vivo
[14] = Drug excretion in Sprague-Dawley rat urine assessed as metabolite 3-keto-saikogenin f level at 50 mg/kg, po administered through gavage by LC-DAD-IT-TOF-MS analysis; design: dose 50 mg/kg, route oral; conditions: in vivo
[15] = Drug excretion in Sprague-Dawley rat bile assessed as metabolite delta1-saikogenin f level at 50 mg/kg, po administered through gavage by LC-DAD-IT-TOF-MS analysis; design: dose 50 mg/kg, route oral; conditions: in vivo
[16] = tested on: Plasma; assay: Drug metabolism in Sprague-Dawley rat plasma assessed as metabolite saikogenin f-27-oic acid formation at 15 mg/kg, iv by LC-DAD-IT-TOF-MS analysis; design: dose 15 mg/kg, route intravenous; conditions: in vivo
[17] = Drug excretion in Sprague-Dawley rat feces assessed as metabolite delta1-saikogenin f level at 15 mg/kg, iv by LC-DAD-IT-TOF-MS analysis; design: dose 15 mg/kg, route intravenous; conditions: in vivo
[18] = Drug excretion in Sprague-Dawley rat bile assessed as metabolite prosaikogenin f level at 15 mg/kg, iv by LC-DAD-IT-TOF-MS analysis; design: dose 15 mg/kg, route intravenous; conditions: in vivo
[19] = Drug excretion in Sprague-Dawley rat bile assessed as metabolite 3-keto-saikogenin f level at 50 mg/kg, po administered through gavage by LC-DAD-IT-TOF-MS analysis; design: dose 50 mg/kg, route oral; conditions: in vivo
[20] = Drug excretion in Sprague-Dawley rat bile assessed as metabolite hydroxysaikosaponin a level at 15 mg/kg, iv by LC-DAD-IT-TOF-MS analysis; design: dose 15 mg/kg, route intravenous; conditions: in vivo
[21] = Drug excretion in Sprague-Dawley rat feces assessed as metabolite prosaikogenin f level at 50 mg/kg, po administered through gavage by LC-DAD-IT-TOF-MS analysis; design: dose 50 mg/kg, route oral; conditions: in vivo
[22] = Drug excretion in Sprague-Dawley rat feces assessed as metabolite 3-keto-saikogenin f level at 15 mg/kg, iv by LC-DAD-IT-TOF-MS analysis; design: dose 15 mg/kg, route intravenous; conditions: in vivo
[23] = Drug excretion in Sprague-Dawley rat urine assessed as metabolite saikogenin f level at 50 mg/kg, po administered through gavage by LC-DAD-IT-TOF-MS analysis; design: dose 50 mg/kg, route oral; conditions: in vivo
[24] = Drug excretion in Sprague-Dawley rat feces assessed as metabolite 3-keto-saikogenin f level at 50 mg/kg, po administered through gavage by LC-DAD-IT-TOF-MS analysis; design: dose 50 mg/kg, route oral; conditions: in vivo
[25] = Drug excretion in Sprague-Dawley rat urine assessed as metabolite saikogenin f level at 15 mg/kg, iv by LC-DAD-IT-TOF-MS analysis; design: dose 15 mg/kg, route intravenous; conditions: in vivo
[26] = tested on: Plasma; assay: Drug metabolism in Sprague-Dawley rat plasma assessed as metabolite saikogenin f formation at 15 mg/kg, iv by LC-DAD-IT-TOF-MS analysis; design: dose 15 mg/kg, route intravenous; conditions: in vivo
[27] = Drug recovery in po dosed rat excreted feces measured over 0 to 24 hrs after drug administration by HPLC analysis relative to starting drug dose; conditions: faeces, read-out: Drug recovery
[28] = Drug excretion in Sprague-Dawley rat bile assessed as metabolite saikogenin f-27-oic acid level at 15 mg/kg, iv by LC-DAD-IT-TOF-MS analysis; design: dose 15 mg/kg, route intravenous; conditions: in vivo
[29] = Drug excretion in Sprague-Dawley rat urine assessed as metabolite prosaikogenin f level at 50 mg/kg, po administered through gavage by LC-DAD-IT-TOF-MS analysis; design: dose 50 mg/kg, route oral; conditions: in vivo
[30] = Drug excretion in Sprague-Dawley rat feces assessed as metabolite saikogenin f level at 50 mg/kg, po administered through gavage by LC-DAD-IT-TOF-MS analysis; design: dose 50 mg/kg, route oral; conditions: in vivo
[31] = Drug excretion in Sprague-Dawley rat feces assessed as metabolite saikogenin f-27-oic acid level at 15 mg/kg, iv by LC-DAD-IT-TOF-MS analysis; design: dose 15 mg/kg, route intravenous; conditions: in vivo
[32] = Drug excretion in Sprague-Dawley rat urine assessed as metabolite saikogenin f-27-oic acid level at 15 mg/kg, iv by LC-DAD-IT-TOF-MS analysis; design: dose 15 mg/kg, route intravenous; conditions: in vivo
[33] = tested on: Plasma; assay: Drug metabolism in Sprague-Dawley rat plasma assessed as metabolite delta1-saikogenin f formation at 50 mg/kg, po administered through gavage by LC-DAD-IT-TOF-MS analysis; design: dose 50 mg/kg, route oral; conditions: in vivo
[34] = Drug excretion in Sprague-Dawley rat urine assessed as metabolite delta1-saikogenin f level at 15 mg/kg, iv by LC-DAD-IT-TOF-MS analysis; design: dose 15 mg/kg, route intravenous; conditions: in vivo
[35] = tested on: Plasma; assay: Drug metabolism in Sprague-Dawley rat plasma assessed as metabolite prosaikogenin f formation at 15 mg/kg, iv by LC-DAD-IT-TOF-MS analysis; design: dose 15 mg/kg, route intravenous; conditions: in vivo
[36] = Drug excretion in Sprague-Dawley rat urine at 15 mg/kg, iv by LC-DAD-IT-TOF-MS analysis; design: dose 15 mg/kg, route intravenous; conditions: in vivo
[37] = Drug excretion in Sprague-Dawley rat bile at 50 mg/kg, po administered through gavage by LC-DAD-IT-TOF-MS analysis; design: dose 50 mg/kg, route oral; conditions: in vivo
[38] = Drug excretion in Sprague-Dawley rat urine assessed as metabolite hydroxysaikosaponin a level at 50 mg/kg, po administered through gavage by LC-DAD-IT-TOF-MS analysis; design: dose 50 mg/kg, route oral; conditions: in vivo

Drug excretion [1]: metabolite_not_detected
Drug metabolism [2]: metabolite_not_detected
Drug excretion [3]: metabolite_not_detected
Drug excretion [4]: metabolite_detected
Drug excretion [5]: metabolite_not_detected
Drug metabolism [6]: metabolite_detected
Drug excretion [7]: metabolite_not_detected
Drug excretion [8]: metabolite_detected
Drug metabolism [9]: metabolite_not_detected
Drug metabolism [10]: metabolite_not_detected
Drug metabolism [11]: metabolite_not_detected
Drug excretion [12]: metabolite_not_detected
Drug excretion [13]: metabolite_not_detected
Drug excretion [14]: metabolite_detected
Drug excretion [15]: metabolite_not_detected
Drug metabolism [16]: metabolite_not_detected
Drug excretion [17]: metabolite_not_detected
Drug excretion [18]: metabolite_detected
Drug excretion [19]: metabolite_not_detected
Drug excretion [20]: metabolite_detected
Drug excretion [21]: metabolite_detected
Drug excretion [22]: metabolite_not_detected
Drug excretion [23]: metabolite_detected
Drug excretion [24]: metabolite_detected
Drug excretion [25]: metabolite_not_detected
Drug metabolism [26]: metabolite_not_detected
dose excreted [27]: > 50%
Drug excretion [28]: metabolite_not_detected
Drug excretion [29]: metabolite_detected
Drug excretion [30]: metabolite_detected
Drug excretion [31]: metabolite_detected
Drug excretion [32]: metabolite_not_detected
Drug metabolism [33]: metabolite_not_detected
Drug excretion [34]: metabolite_not_detected
Drug metabolism [35]: metabolite_detected
Drug excretion [36]: metabolite_detected
Drug excretion [37]: metabolite_detected
Drug excretion [38]: metabolite_not_detected
SMILES: C[C@H]1O[C@@H](O[C@H]2CC[C@@]3(C)[C@@H](CC[C@]4(C)[C@@H]3C=C[C@]35OC[C@@]6(CCC(C)(C)C[C@H]63)[C@@H](O)C[C@]54C)[C@]2(C)CO)[C@H](O)[C@@H](O[C@@H]2O[C@H](CO)[C@@H](O)[C@H](O)[C@H]2O)[C@H]1O [SAIKOSAPONIN A]
